IC50 data for 37 molecules are collected here from US20240376056A1, “PHENYL ACETAMIDE BASED IL-17A MODULATORS AND USES THEREOF” (DiCE Alpha, Inc., priority 2021, published 2024).

In this test the target is T1, IL-17A/A (Homo sapiens, UniProt Q16552).
T1 construct: purchased Genscript Z03228
T1 sequence (Q16552 24-155): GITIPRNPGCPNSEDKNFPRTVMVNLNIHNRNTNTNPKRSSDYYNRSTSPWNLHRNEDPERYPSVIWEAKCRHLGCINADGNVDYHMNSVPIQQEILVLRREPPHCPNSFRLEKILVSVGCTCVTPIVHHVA
The test is described as follows: HEK-Blue IL-17A/A inhibition assay (SEAP reporter). In kind it is cell-based. As to conditions: HEK-Blue cells (HEK 293 expressing IL-17RA, IL-17RC, Act1); IL-17A/A stimulation; 20 hours; SEAP read at A630; 4-parameter fit. The method in brief: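 HEK 293 cells engineered with IL-17RA, IL-17RC and Act1 (NFκB-driven SEAP) given titrated compound (top final 10, 1 or 0.3 uM; 0.1% DMSO) just before IL-17A/A, then incubated 20 h. SEAP in media developed with Quanti-Blue, read at A630; IC50 by 4-parameter nonlinear fit.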

In general, IC50 refers to the concentration that gives 50% inhibition. Regarding `CC(C(=O)NCC(F)(F)F)c1cc(F)c(NC(=O)[C@@H](NC(=O)c2ccnn2C(C)C)C(C2CC2)C2CC2)cc1CN` (stereo partly drawn) [Compound 119, N-((2S)-1-((5-(aminomethyl)-2-fluoro-4-(1-oxo-1-((2,2,2-trifluoroethyl)amino)propan-2-yl)phenyl)amino)-3,3-dicyclopropyl-1-oxopropan-2-yl)-1-isopropyl-1H-pyrazole-5-carboxamide], the IC50 was in the range of 100 to 1000 nM.
Consider `Cc1c(F)c(NC(=O)[C@@H](NC(=O)c2conc2C2CC2)C(C2CC2)C2CC2)cc(C(F)(F)F)c1C(C)C(=O)NCC(F)(F)F` (stereo partly shown) [Compound 237], for which the concentration for half-maximal inhibition (IC50) was over 1000 nM.
With `CC(C)n1nccc1C(=O)N[C@H](C(=O)Nc1ccc([C@H](C)C(=O)N2CC(O)CC2C(F)(F)F)cc1F)C(C1CC1)C1CC1` (single isomer, unassigned) [Compound 145], the half-maximal inhibitory concentration (IC50) was over 1000 nM.
For the molecule `C[C@H](C(=O)NCC(F)(F)F)c1ccc(NC(=O)[C@@H](NC(=O)c2ccnn2C2CCCNC2)C(C2CC2)C2CC2)c(F)c1` (single isomer, unassigned) [Compound 97], the IC50 is over 1000 nM.
The same measure for `CC(C)n1nccc1C(=O)N[C@H](C(=O)Nc1ccc([C@H](C)C(=O)N2C(C(N)=O)CCC2C(F)(F)F)cc1F)C(C1CC1)C1CC1` (single isomer, unassigned) [Compound 146]: over 1000 nM; for `CCn1nccc1C(=O)N[C@H](C(=O)Nc1ccc(C(C)C(=O)N2CCC(C(F)(F)F)C2)cc1F)C(C1CC1)C1CC1` (stereo partly shown) [Compound 221]: 100 to 1000 nM; for `CC(C)n1nccc1C(=O)N[C@H](C(=O)Nc1cc(CN(C)C)c([C@H](C)C(=O)NCC(F)(F)F)cc1F)C(C1CC1)C1CC1` [Compound 165, N-((S)-1,1-dicyclopropyl-3-((5-((dimethylamino)methyl)-2-fluoro-4-((S)-1-oxo-1-((2,2,2-trifluoroethyl)amino)propan-2-yl)phenyl)amino)-3-oxopropan-2-yl)-1-isopropyl-1H-pyrazole-5-carboxamide]: 100 to 1000 nM.
To “N-((S)-1,1-dicyclopropyl-3-((2-fluoro-4-((S)-1-oxo-1-(3-(trifluoromethyl)azetidin-1-yl)propan-2-yl)phenyl)amino)-3-oxopropan-2-yl)-1-ethyl-1H-pyrazole-5-carboxamide [Compound 14]” belongs 100 to 1000 nM; to `CC(C)n1nccc1C(=O)N[C@H](C(=O)Nc1ccc([C@H](C)C(=O)N2CCCCC2C(F)(F)F)cc1F)C(C1CC1)C1CC1` (single isomer, unassigned) [Compound 21], 100 to 1000 nM; to `C[C@H](C(=O)NCC(F)(F)F)c1ccc(NC(=O)[C@@H](NC(=O)c2ccnn2C2CCCNC2)C(C2CC2)C2CC2)c(F)c1` (single isomer, unassigned) [Compound 96], over 1000 nM.
For the molecule `CC(C(=O)NCC(F)(F)F)c1cc(F)c(NC(=O)[C@@H](NC(=O)c2ccnn2C(C)C)C(C2CC2)C2CC2)cc1N(C)C` (single isomer, unassigned) [Compound 163], the concentration for half-maximal inhibition (IC50) is under 100 nM.
With `CCOc1cc(NC(=O)[C@@H](NC(=O)c2ccnn2C(C)C)C(C2CC2)C2CC2)c(F)cc1C(C)C(=O)N(C)CC(F)(F)F` (stereo partly shown) [Compound 195], the IC50 was under 100 nM.
The same measure for `Cc1cc(NC(=O)[C@@H](NC(=O)c2ccnn2C)C2CCC(F)(F)CC2)c(F)cc1C(C)C(=O)N(C)CC(F)(F)F` (stereo partly shown) [Compound 216]: 100 to 1000 nM; for `CCOc1cc(NC(=O)[C@@H](NC(=O)c2ccnn2C(C)C)C(C2CC2)C2CC2)c(F)cc1C(C)C(=O)NCC(F)(F)F` (stereo partly shown) [Compound 194]: 100 to 1000 nM.
The same measure for `CC[C@@H](c1ccc(F)cc1)[C@H](NC(=O)c1ccnn1C(C)C)C(=O)Nc1cc(OC)c(C(C)C(=O)NCC(F)(F)F)cc1F` (stereo partly shown) [Compound 177]: 100 to 1000 nM.
As to `COC(=O)C(NC(=O)[C@@H](C)c1ccc(NC(=O)[C@@H](NC(=O)c2ccnn2C(C)C)C(C2CC2)C2CC2)c(F)c1)C(F)(F)F` (stereo partly shown) [Compound 62], the IC50 was 100 to 1000 nM.
The same measure for `CCc1nonc1C(=O)N[C@H](C(=O)Nc1cc(C)c(C(C)C(=O)NCC(F)(F)F)cc1F)C1CCC(F)(F)CC1` (stereo partly shown) [Compound 224]: 100 to 1000 nM; for `CCc1nonc1C(=O)N[C@H](C(=O)Nc1cc(C)c(C(C)C(=O)NCC(F)(F)F)cc1F)C(C1CC1)C1CC1` (stereo partly shown) [Compound 206]: 100 to 1000 nM; for `CC(C)n1nccc1C(=O)N[C@H](C(=O)Nc1ccc([C@H](C)C(=O)N[C@@H](CO)C2CCC2)cc1F)C(C1CC1)C1CC1` [Compound 156]: 100 to 1000 nM.
Consider `CC(C)n1nccc1C(=O)N[C@H](C(=O)Nc1ccc([C@H](C)C(=O)N2CC(O)CC2C(F)(F)F)cc1F)C(C1CC1)C1CC1` (single isomer, unassigned) [Compound 143], for which the IC50 was 100 to 1000 nM.
With `CC(C)C(C(=O)NCC(F)(F)F)c1ccc(NC(=O)[C@@H](NC(=O)c2ccnn2C(C)C)C(C2CC2)C2CC2)c(F)c1` (single isomer, unassigned) [Compound 128], the IC50 fell in the range of 100 to 1000 nM.
`CC[C@@H](c1ccc(Cl)cc1)[C@H](NC(=O)c1ccnn1CC)C(=O)Nc1ccc([C@H](C)C(=O)N(C)CC(F)(F)F)cc1F` [Compound 72, N-((2S,3S)-3-(4-chlorophenyl)-1-((2-fluoro-4-((S)-1-(methyl(2,2,2-trifluoroethyl)amino)-1-oxopropan-2-yl)phenyl)amino)-1-oxopentan-2-yl)-1-ethyl-1H-pyrazole-5-carboxamide]: the IC50 lay within 100 to 1000 nM.
With `CCn1nccc1C(=O)N[C@H](C(=O)Nc1cc(C)c(C(C)C(=O)N(C)CC(F)(F)F)cc1F)[C@H]1CC[C@H](C)CC1` (stereo partly shown) [Compound 202], the IC50 is under 100 nM.
For `CC(C)n1nccc1C(=O)N[C@H](C(=O)Nc1ccc([C@H](C)C(=O)N2CC(O)CC2C(F)(F)F)cc1F)C(C1CC1)C1CC1` (single isomer, unassigned) [Compound 142], the IC50 is under 100 nM.
For `CC(C)n1nccc1C(=O)N[C@H](C(=O)Nc1ccc([C@H](C)C(=O)NCC(C)(F)F)cc1F)C(C1CC1)C1CC1` [Compound 57, N-((S)-1,1-dicyclopropyl-3-((4-((S)-1-((2,2-difluoropropyl)amino)-1-oxopropan-2-yl)-2-fluorophenyl)amino)-3-oxopropan-2-yl)-1-isopropyl-1H-pyrazole-5-carboxamide], the IC50 was 100 to 1000 nM.
Take `Cc1cc(NC(=O)[C@@H](NC(=O)c2nonc2C2CC2)C(C2CC2)C2CC2)c(F)cc1C(C)C(=O)NCC(F)(F)F` (stereo partly shown) [Compound 251]: the half-maximal inhibitory concentration (IC50) is under 100 nM.
With `CC(C)n1nccc1C(=O)N[C@H](C(=O)Nc1ccc([C@H](C)C(=O)NC2(C(F)(F)F)CNC2)cc1F)C(C1CC1)C1CC1` [Compound 52, N-((S)-1.1-dicyclopropyl-3-((2-fluoro-4-((S)-1-oxo-1-((3-(trifluoromethyl)azetidin-3-yl)amino)propan-2-yl)phenyl)amino)-3-oxopropan-2-yl)-1-isopropyl-1H-pyrazole-5-carboxamide], the IC50 was over 1000 nM.
With `CCn1nccc1C(=O)N[C@H](C(=O)Nc1cc(OC(F)(F)F)c(C(C)C(=O)NCC(F)(F)F)cc1F)C(C1CC1)C1CC1` (stereo partly shown) [Compound 248], the IC50 is over 1000 nM.
As to `CCn1nccc1C(=O)N[C@H](C(=O)Nc1cc(C)c(C(C)C(=O)NCC(F)(F)F)cc1F)[C@H]1CC[C@H](C)CC1` (stereo partly shown) [Compound 201], the half-inhibitory concentration (IC50) is over 1000 nM.
Regarding `CC(C(=O)NCC(F)(F)F)c1cc(F)c(NC(=O)[C@@H](NC(=O)c2ccnn2C(C)C)C2CCC(F)(F)CC2)cc1OC(F)(F)F` (single isomer, unassigned) [Compound 220], the IC50 was over 1000 nM.
The same measure for `CC(C)n1nccc1C(=O)N[C@H](C(=O)Nc1ccc(C(CN2CCOCC2)C(=O)NCC(F)(F)F)cc1F)C(C1CC1)C1CC1` (single isomer, unassigned) [Compound 131]: 100 to 1000 nM; for `CC(C(=O)NCC(F)(F)F)c1cc(F)c(NC(=O)[C@@H](NC(=O)c2ccnn2C(C)C)C(C2CC2)C2CC2)cc1CS(C)(=N)=O` (stereo partly shown) [Compound 260]: 100 to 1000 nM.
To `CC(C(=O)NCC(F)(F)F)c1cc(F)c(NC(=O)[C@@H](NC(=O)c2ccnn2C(C)C)C(C2CC2)C2CC2)cc1NC(=O)OCCN` (stereo partly shown) [Compound 256] belongs 100 to 1000 nM.
As for `CC(C)n1nccc1C(=O)N[C@H](C(=O)Nc1ccc([C@H](C)C(=O)NC(c2ccccc2)C(F)(F)F)cc1F)C(C1CC1)C1CC1` (stereo partly drawn) [Compound 66, N-((2S)-1,1-dicyclopropyl-3-((2-fluoro-4-((2S)-1-oxo-1-((2,2,2-trifluoro-1-phenylethyl)amino)propan-2-yl)phenyl)amino)-3-oxopropan-2-yl)-1-isopropyl-1H-pyrazole-5-carboxamide], the half-maximal inhibitory concentration (IC50) is 100 to 1000 nM.
For the molecule `CC(C(=O)N1CCC(C(N)=O)C1C(F)(F)F)c1cc(F)c(NC(=O)[C@@H](NC(=O)c2ccnn2C(C)C)C(C2CC2)C2CC2)cc1C(F)(F)F` (stereo partly shown) [Compound 228], the IC50 was 100 to 1000 nM.
To `CC(C)n1nccc1C(=O)N[C@H](C(=O)Nc1ccc([C@H](C)C(=O)NCC(F)(F)CN)cc1F)C(C1CC1)C1CC1` [Compound 100, N-((S)-1-((4-((S)-1-((3-amino-2,2-difluoropropyl)amino)-1-oxopropan-2-yl)-2-fluorophenyl)amino)-3,3-dicyclopropyl-1-oxopropan-2-yl)-1-isopropyl-1H-pyrazole-5-carboxamide] belongs over 1000 nM; to `CC(C)n1nccc1C(=O)N[C@H](C(=O)Nc1ccc([C@H](C)C(=O)NC2(C(F)(F)F)CN(C(=O)OC(C)(C)C)C2)cc1F)C(C1CC1)C1CC1` [Compound 46, tert-butyl 3-((S)-2-(4-((S)-3,3-dicyclopropyl-2-(1-isopropyl-1H-pyrazole-5-carboxamido)propanamido)-3-fluorophenyl)propanamido)-3-(trifluoromethyl)azetidine-1-carboxylate], over 1000 nM.
